Like-named read-outs stand apart in the source and are kept apart here.
Key:
Kidney Bean = assay: Phytotoxicity on various crops; format: in vivo; set-up: key: Symbol — indicates that no toxicity was observed; conditions: 500 ppm sprayed; checked visually after 10 days
Experimental: (§1) An emulsifiable concentrate prepared as described in Formulation Example 2 was diluted with water to a concentration of 500 ppm based on the effective ingredient and sprayed sufficiently using a spray-gun onto various test plants. The plants were kept in a green house. After 10 days from the application phytotoxicity was checked visually. The test was replicated 3 times for each compound.

Beet = assay: Phytotoxicity on various crops; format: in vivo; set-up: key: Symbol — indicates that no toxicity was observed; conditions: 500 ppm sprayed; checked visually after 10 days
Experimental: as §1

Rice = assay: Phytotoxicity on various crops; format: in vivo; set-up: key: Symbol — indicates that no toxicity was observed; conditions: 500 ppm sprayed; checked visually after 10 days
Experimental: as §1

egg plant = assay: Phytotoxicity on various crops; format: in vivo; set-up: key: Symbol — indicates that no toxicity was observed; conditions: 500 ppm sprayed; checked visually after 10 days
Experimental: as §1

Green Pepper = assay: Phytotoxicity on various crops; format: in vivo; set-up: key: Symbol — indicates that no toxicity was observed; conditions: 500 ppm sprayed; checked visually after 10 days
Experimental: as §1

Cucumber = assay: Phytotoxicity on various crops; format: in vivo; set-up: key: Symbol — indicates that no toxicity was observed; conditions: 500 ppm sprayed; checked visually after 10 days
Experimental: as §1

Apple = assay: Phytotoxicity on various crops; format: in vivo; set-up: key: Symbol — indicates that no toxicity was observed; conditions: 500 ppm sprayed; checked visually after 10 days
Experimental: as §1

Tea = assay: Phytotoxicity on various crops; format: in vivo; set-up: key: Symbol — indicates that no toxicity was observed; conditions: 500 ppm sprayed; checked visually after 10 days
Experimental: as §1

Cotton = assay: Phytotoxicity on various crops; format: in vivo; set-up: key: Symbol — indicates that no toxicity was observed; conditions: 500 ppm sprayed; checked visually after 10 days
Experimental: as §1

Tomato = assay: Phytotoxicity on various crops; format: in vivo; set-up: key: Symbol — indicates that no toxicity was observed; conditions: 500 ppm sprayed; checked visually after 10 days
Experimental: as §1

Cabbage = assay: Phytotoxicity on various crops; format: in vivo; set-up: key: Symbol — indicates that no toxicity was observed; conditions: 500 ppm sprayed; checked visually after 10 days
Experimental: as §1

rice stem borer = assay: Insecticidal effect on rice stem borer, 3rd-instar larvae (rice seedling dip); format: in vivo, Chilo suppressalis; conditions: after 72 hours, 25°C
Experimental: (§2) (A) A wettable powder prepared as described in Formulation Example 5 was diluted with water to a predetermined concentration. Rice seedlings were dipped into the dilute solution and placed in a 60 ml volume cup made of vinyl chloride resin, and 10 3rd-instar larvae of rice stem borer were put in each cup. The cups were capped and maintained at 25°C.
as §2, with “(B) A” for “(A) A”, “Example 7” for “Example 5”

[1] = test system: carmine mites resistant to Kelthane; assay: Miticidal effect on carmine mite resistant to Kelthane (sprayed egg plant seedling); format: in vivo, Tetranychus cinnabarius; conditions: Table 13, 500 ppm
Experimental: (§3) (A) An emulsifiable concentrate prepared as described in Formulation Example 1 and diluted to a predetermined concentration was sprayed using a spray-gun on a seedling of an egg plant placed in a pot of 12 cm in diametre to which plant carmine mites resistant to Kelthane were parasitic. After drying in air, seedlings were kept in a green house, and the number of living insects was recorded on the 7th, 14th, 21 st and 28th day from the day of application to determine the control effects. Three pots were used for each treatment. The control effect was assessed by the formula described in TEST EXAMPLE 7 above. Further, phytotoxicity was observed visually on the 7th day after the application.
as §3, with “(B) An” for “(A) An”, “Example 3” for “Example 1”, “in diameter” for “in diametre”, “in Test” for “in TEST”

carmine mites = assay: Miticidal effect on carmine mite (sprayed kidney bean seedling); format: in vivo, Tetranychus cinnabarius; conditions: 500 ppm
Experimental: An emulsifiable concentrate prepared as described in Formulation Example 1 and diluted to a predetermined concentration was sprayed using a spray-gun on a seedling of a kidney bean placed in a pot of 12 cm in diameter to which plant carmine mites were parasitic. After drying in air, seedlings were kept in a green house, and the number of living insects was recorded on the 7th, 14th, 21st and 28th day from the day of application to determine the control effects. Three pots were used for each treatment. The control effect was assessed by the following formula: [formula] • wherein Σ indicates sum and Cb, Tb, Cai and Tai have the following meanings. • Cb: Number of living mites in non-treated sample before application. • Tb: Number of living mites in treated sample before application. • Cai: Number of living mites in non-treated sample 7th, 14th, 21 st or 28th day from the application. • Tai: Number of living mites in treated sample 7th, 14th, 21st or 28th day from the application.

tobacco cutworm [2] = assay: Insecticidal effect on tobacco cutworm (cabbage leaf dip); format: in vivo, Prodenia litura; conditions: after 48 hours, 25°C
Experimental: (§4) (A) An emulsifiable concentrate prepared as described in Formulation Example 1 was diluted with water to a predetermined concentration and then cabbage leaves were dipped into the dilute solution and dried in air and placed in a 60 ml volume cup made of vinyl chloride resin. 3rd-instar larvae of tobacco cutworm were put in each cup and maintained at 25°C. After 48 hours, percent mortality was assessed. The test was replicated 3 times for each compound using 30 insects in each test.
as §4, with “(B)” for “(A)”, “3” for “1”

diamond back moth = assay: Insecticidal effect on diamond-back moth (cabbage leaf dip); format: in vivo, Plutella xylostella; conditions: after 72 hours, 25°C
Experimental: (§5) (A) An emulsifiable concentrate prepared as described in Formulation Example 1 was diluted with water to a predetermined concentration and leaves of a cabbage were dipped into the dilute emulsion for 10 seconds followed by drying in air, and charged in a 60 ml volume cup made of vinyl chloride resin. Then, thirty 3rd-instar larvae of diamond back moth were put in each cup, and the cups were kept at 25°C. After 72 hours, percent mortality was assessed and the test was replicated 3 times for each treatment.
as §5, with “(B) An” for “(A) An”, “Example 4” for “Example 1”

apple leaf miner = assay: Insecticidal effect on apple leaf miner (sprayed apple seedling); format: in vivo, Lithocolletis ringoniella; conditions: for mortality at 500 ppm: Phyllonorycter ringoniella, 336 h
Experimental: (§6) (A) A dilute water suspension of a wettable powder prepared as described in Formulation Example 5 was sufficiently sprayed using a spray-gun on a seedling of an apple tree planted in a bisque flower pot to which plant larvae of apple leaf miner just after hatching were parasitic. Thereafter the pots were placed in a green house. Fourteen days after the spraying, bores made by larvae were broken and percent mortality was assessed for all the leaves of each seedling. Three pots were used for each treatment.
as §6, with “(B)” for “(A)”, “7” for “5”

tobacco cutworm [3] = assay: Long-lasting insecticidal effect on tobacco cutworm (sprayed cabbage plantlet); format: in vivo, Prodenia litura; conditions: concentration 500 (unit not given), mortality after 48 hours; for Percent Mortality After Application 3rd Day: leaves cut on 3rd day
Experimental: (§7) (A) An emulsifiable concentrate prepared as described in Formulation Example 2 was diluted with water to a predetermined concentration and sprayed onto a cabbage plantlet in a flower pot of 15 cm in diameter using a spray-gun sufficiently and the tests plants were placed in a green house. The leaves of the plants were cut off on the 3rd, 5th, 7th, 10th and 15th day and placed in a 60 ml volume cup and 3rd-instar larvae of tobacco cutworm were put in each cup. The cups were kept in an incubator (25°C). After 48 hours, percent mortality was assessed. The tests was replicated 3 times for each compound using 30 insects in each test.
as §7, with “(B) An” for “(A) An”, “Example 3” for “Example 2”, “and 1 5th” for “and 15th”

[4] = egg plant seedling, Formulation Example 1
[5] = Table 7, 100 ppm, emulsifiable concentrate as Formulation Example 1
[6] = Table 4, 100 ppm, emulsifiable concentrate as Formulation Example 3
[7] = Table 8, 100 ppm, emulsifiable concentrate as Formulation Example 4

`CCCCSP(=O)(OCC)Oc1ccc2c(c1)OC(C)=CC2(C)C` (stereo not drawn) [Compound No. 5] was tested, and the “Phytotoxicity: Kidney Bean” value (Kidney Bean) was “—”, the “Phytotoxicity: Beet” value (Beet) was “—” and the “Phytotoxicity: Rice” value (Rice) was “—”. The “Phytotoxicity: Egg Plant” value (egg plant) was “—”, the “Phytotoxicity: Green Pepper” value (Green Pepper) was “—” and the “Phytotoxicity: Cucumber” value (Cucumber) was “—”. The “Phytotoxicity: Apple” value (Apple) was “—”, the “Phytotoxicity: Tea” value (Tea) was “—” and the “Phytotoxicity: Cotton” value (Cotton) was “—”. The “Phytotoxicity: Tomato” value (Tomato) was “—”, the “Phytotoxicity: Cabbage” value (Cabbage) was “—” and the “Percent Mortality (%)” value (rice stem borer; Table 1, 500 ppm, wettable powder as Formulation Example 5) was 100%. For the same compound, the “Number of Living Mites after Application 7th Day” value [1, 4] was 0, the “Number of Living Mites after Application 14th Day” value [1, 4] was 0 and the “Number of Living Mites after Application 21st Day” value [1, 4] was 9. For the same compound, the “Number of Living Mites after Application 28th Day” value [1, 4] was 29, the “Control Effect (%)” value ([1]; from mite counts on 7th, 14th, 21st and 28th day) was 97.4% and the “Control Effect (%)” value (carmine mites) was 91.2%. For the same compound, the “Number of Living Mites after Application 7th Day” value (carmine mites) was 0, the “Number of Living Mites after Application 14th Day” value (carmine mites) was 0 and the “Number of Living Mites after Application 21st Day” value (carmine mites) was 16. The “Number of Living Mites after Application 28th Day” value (carmine mites) was 38, the “Percent Mortality (%)” value (tobacco cutworm [2]; Table 3, 500 ppm, emulsifiable concentrate as Formulation Example 1) was 100% and the “Percent Mortality (%)” value (diamond back moth; [5]) was 100%.

For `CCCSP(=S)(OCC)Oc1cccc2c1C(C)=CC(C)(C)O2` (stereo not drawn) [Compound No. 26], the “Phytotoxicity: Kidney Bean” value (Kidney Bean) was “—”, the “Phytotoxicity: Beet” value (Beet) was “—” and the “Phytotoxicity: Rice” value (Rice) was “—”. The “Phytotoxicity: Egg Plant” value (egg plant) was “—”, the “Phytotoxicity: Green Pepper” value (Green Pepper) was “—” and the “Phytotoxicity: Cucumber” value (Cucumber) was “—”. For the same compound, the “Phytotoxicity: Apple” value (Apple) was “—”, the “Phytotoxicity: Tea” value (Tea) was “—” and the “Phytotoxicity: Cotton” value (Cotton) was “—”. For the same compound, the “Phytotoxicity: Tomato” value (Tomato) was “—”, the “Phytotoxicity: Cabbage” value (Cabbage) was “—” and the “Percent Mortality (%)” value (rice stem borer; Table 2, 100 ppm, wettable powder as Formulation Example 7) was 100%. The “Percent Mortality (%)” value (tobacco cutworm [2]; [6]) was 100% and the “Percent Mortality (%)” value (diamond back moth; [7]) was 96.7%.

With `COP(=O)(OC)OC=C(Cl)Cl` [DDVP, dimethyl 2,2-dichlorovinyl dimethyl phosphate, reference compound] the “Percent Mortality (%)” value (tobacco cutworm [2]; [6]) was 46.7%, the “Percent Mortality (%)” value (diamond back moth; [5]) was 23.3% and the “Percent Mortality (%)” value (diamond back moth; Table 7, 500 ppm) was 76.7%. The “Percent Mortality (%)” value (diamond back moth; [7]) was 6.7% and the “Percent Mortality (%)” value (diamond back moth; Table 8, 500 ppm) was 83.3%.

Work on `CCOP(=S)(OCC)Oc1nc(Cl)c(Cl)cc1Cl` [Dursban, 0,0-diethyl 0-(3,5,6-trichloro-2-pyridyl)phosphorothioate, reference compound] yielded a mortality at 500 ppm (apple leaf miner; read-out: Percent Morality (%)) of 29.4%.

In the case of `CCOC(=O)C(SP(=S)(OC)OC)c1ccccc1` (stereo not drawn) [Elsan, S-(α-ethoxy-carbonyl benzyl O,O-dimethyl phosphorodithioate, reference compound], the “Percent Morality (%)” value (apple leaf miner; Table 10, 500 ppm, fourteen days after spraying, wettable powder as Formulation Example 5, 20160 min) is reported as 13.2%.

In the case of `COP1(=S)OCc2ccccc2O1` (stereo not drawn) [Salithion, 2-methoxy-4H-benzo-1,3,2-dioxaphosphorin 2-sulphide, reference compound], the “Percent Mortality After Application 3rd Day” value (tobacco cutworm [3]; Table 5) is reported as 20%, the “Percent Mortality After Application 5th Day” value (tobacco cutworm [3]; Table 5, leaves cut on 5th day) is reported as 0% and the “Percent Mortality After Application 7th Day” value (tobacco cutworm [3]; Table 5, leaves cut on 7th day) is reported as 0%. For the same compound, the “Percent Mortality After Application 10th Day” value (tobacco cutworm [3]; Table 5, leaves cut on 10th day) was 0%, the “Percent Mortality After Application 15th Day” value (tobacco cutworm [3]; Table 5, leaves cut on 15th day) was 0% and the “Percent Mortality After Application 3rd Day” value (tobacco cutworm [3]; Table 6) was 0%. For the same compound, the “Percent Mortality After Application Immediately after Application” value (tobacco cutworm [3]; Table 6) was 100% and the mortality at 500 ppm (apple leaf miner; Table 10, 500 ppm, fourteen days after spraying, wettable powder as Formulation Example 5, read-out: Percent Morality (%)) was 95%.

`COc1nn(CSP(=S)(OC)OC)c(=O)s1` [Supracide, O,O-dimethyl-S-[5-methoxy-1,3,4-thiadiazol-2(3H)-onyl(3)-methyl]dithiophosphate, reference compound] showed a mortality at 500 ppm (apple leaf miner; Table 11, 500 ppm, fourteen days after spraying, wettable powder as Formulation Example 7, read-out: Percent Mortality (%)) of 72%.

Reference: patent EP0054589B1, “Organic phosphoric acid ester derivatives, a process for preparing the same and insecticidal, miticidal or nematocidal compositions containing the same” (priority 1980, dated 1982)
